Data from patent US10561846B2 (priority 2000, dated 2020).
Where two headings read alike, the source gives them in different places.

What was measured:
[1] = tested on: human macrophage cultures; assay: TNF release from LPS-stimulated human macrophage cultures (TNF ELISA); assay type: cell-based; settings: for EC50: Macrophage, human macrophages, LPS 100 ng/ml 4 h, n=9, read-out: E.C.50, effective concentration that inhibited 50% of the TNF response
TNF mRNA = assay: RNase protection assay of TNF mRNA in LPS-stimulated macrophages; assay type: cell-based, human; settings: agonist 100 µM, 5 min before 2 hour LPS 100 ng/ml (FIG. 2)
[2] = tested on: Murine RAW 264.7 macrophage-like cells; settings: nicotine 0.1-100 µM, 5 min before LPS 500 ng/ml, medium collected after 20 hr (FIG. 15)
Method: Experiments were performed to determine whether the inhibitory effect of cholinergic agonists on proinflammatory cytokines applied to HMG-1. Murine RAW 264.7 macrophage-like cells (American Type Culture Collection, Rockville, Md., USA) were grown in culture under DMEM supplemented with 10% fetal bovine serum and 1% glutamine. When the cells were 70-80% confluent, the medium was replaced by serum-free OPTI-MEM 1 medium. […] Culture medium was collected after 20 hr. The culture medium was concentrated with a Centricon T 10 filter, then analyzed by western blot, using an anti-HMG-1polyclonal antisera (WO 00/47104) and standard methods. Band densities were determined using a Bio-Rad Imaging densitometer.

TNF = TNF immunohistochemistry of cell-associated TNF in human macrophage cultures; assay type: cell-based; settings: ACh 100 µM, 5 min before LPS 100 ng/ml, fixed after 2 hours (FIG. 3)
Method: TNF immunohistochemistry was performed as follows. Human macrophages were differentiated as described above, and grown on glass chamber slides (Nunc, Naperville, Ill.). Slides were incubated in a blocking solution (1% BSA, 5% normal goat serum, 0.3% Triton X-100 in PBS) for 1 hour at room temperature and then incubated for 24 hours at 4° C. with a primary mouse anti-human TNF monoclonal antibody (Genzyme, Cambridge, Mass.) diluted 1:100 in PBS containing 0.3% Triton X-100, 0.1% BSA, and 3% normal goat serum. Washed sections were incubated for 2 hours with secondary biotinylated anti-mouse IgG (1:200, Vector Laboratories, Inc., Burlingame, Calif.). The reaction product was visualized with 0.003% hydrogen peroxide and 0.05% 3,3′-diaminobenzidine tetrahydrochloride as a chromogen. Negative controls were incubated in the absence of primary antibodies (not shown). Slides were analyzed on a light microscope (Olympus BX60, Japan) using a MetaMorth Imaging System (Universal Imaging Co., West Chester, Pa.).
To determine whether acetylcholine inhibited macrophage TNF synthesis or macrophage TNF release, monoclonal anti-TNF antibodies were used to label cell-associated TNF in human macrophage cultures. In those experiments (FIG. 3), cells were exposed to either ACh (100 µM), either alone or in the presence of pyridostigmine bromide (1 mM), five minutes before LPS (100 ng/ml) treatment. […]

IL-1β = IL-1β release from LPS-stimulated human macrophage cultures (ELISA); assay type: cell-based; settings: ACh with pyridostigmine bromide 1 mM, LPS 100 ng/ml, 20 hours (FIG. 5)
Method: (§1) To assess specificity, the release of other macrophage-derived cytokines was measured in LPS-stimulated macrophage cultures treated with acetylcholine. In those experiments, human macrophage cultures were incubated with ACh at the indicated concentrations in the presence of pyridostigmine bromide (1 mM) and LPS (100 ng/ml) for 20 hours. IL-1β (FIG. 5), IL-6 (FIG. 6) and IL-10 (FIG. 8) levels were measured in media using commercially available ELISA kits (R&D Systems Inc., Minneapolis, Minn.). IL-18 (FIG. 7) levels were determined by specific ELISA (Medical & Biological Laboratories Co., Ltd., Nagoya, Japan). Each sample was analyzed in triplicate. Data are expressed as Mean.+−.SEM from 4 separate experiments using macrophages prepared from 4 separate healthy donors.

IL-6 = IL-6 release from LPS-stimulated human macrophage cultures (ELISA); assay type: cell-based; settings: ACh with pyridostigmine bromide 1 mM, LPS 100 ng/ml, 20 hours (FIG. 6)
Method: as §1

IL-18 = IL-18 release from LPS-stimulated human macrophage cultures (ELISA); assay type: cell-based; settings: ACh with pyridostigmine bromide 1 mM, LPS 100 ng/ml, 20 hours (FIG. 7)
Method: as §1

IL-10 = IL-10 release from LPS-stimulated human macrophage cultures (ELISA); assay type: cell-based; settings: ACh with pyridostigmine bromide 1 mM, LPS 100 ng/ml, 20 hours (FIG. 8)
Method: as §1

macrophage cultures = assay: MTT staining and Trypan blue exclusion of macrophage cultures treated with LPS and acetylcholine; assay type: cell-based, human; settings: macrophage cultures treated with LPS and acetylcholine (not shown)
IL-1β mRNA = IL-1β mRNA levels, colorimetric microplate assay (Quantikine mRNA); assay type: cell-based, human; settings: acetylcholine 100 nM, LPS 2 hours; n=3; LPS alone 1974
Source text: (§2) The molecular mechanism of acetylcholine inhibition of IL-1β and IL-6 was investigated further by measuring gene-specific mRNA levels with biotin-labeled capture oligonucleotide probes in a calorimetric microplate assay (Quantikine mRNA, R&D Systems, Inc., Minneapolis, Minn.).

IL-6 mRNA = IL-6 mRNA levels, colorimetric microplate assay (Quantikine mRNA); assay type: cell-based, human; settings: LPS-stimulated macrophages; n=3; LPS alone 1716
Source text: as §2

[3] = tested on: differentiated human macrophages; assay: Acetylcholine suppression of cytokine synthesis (TNF), 'our own studies' compared with macrophage data; assay type: cell-based; settings: printed as differentiated human macrophages, n=3, read-out: E.C.50 for inhibiting TNF
[4] = tested on: nicotinic or muscarinic acetylcholine receptors
[5] = ACh with pyridostigmine bromide 1 mM
[6] = human macrophage cultures, LPS 100 ng/ml for 4 hours (FIG. 1)

CN1CCCC1c1cccnc1 (centres unmarked) [nicotine]
EC50 [1, 5]: 0.0083 µM | inhibition of TNF release [1, 6]: inhibited TNF release in a dose dependent manner | TNF mRNA levels (TNF mRNA): do not reduce LPS-stimulated TNF mRNA levels | HMG-1 production [2]: inhibited HMG-1 production in a dose-dependent manner

C[C@@H]1O[C@H](C[N+](C)(C)C)C[C@H]1O [muscarine]
EC50 ([1]; P<0.01 vs nicotine or acetylcholine): 42.4 µM | inhibition of TNF release [1, 6]: inhibited TNF release in a dose dependent manner | TNF mRNA levels (TNF mRNA): do not reduce LPS-stimulated TNF mRNA levels

CC(=O)OCC[N+](C)(C)C.[Cl-] [acetylcholine, acetylcholine chloride]
EC50 [1, 5]: 0.0202 µM | inhibition of TNF release [1, 6]: inhibited TNF release in a dose dependent manner | inhibition of TNF release ([1]; macrophage culture media conditioned by exposure to LPS for 20 hours (not shown)): Comparable inhibition of TNF release | TNF mRNA levels (TNF mRNA): did not decrease | LPS-stimulated TNF immunoreactivity in macrophages (TNF): significantly attenuated | IL-1β release (IL-1β): dose-dependently inhibits the release | IL-6 release (IL-6): dose-dependently inhibits the release | IL-18 release (IL-18): dose-dependently inhibits the release | IL-10 release (IL-10): does not prevent the constitutive release | cytotoxicity (MTT, Trypan blue exclusion) (macrophage cultures): not due to cytotoxicity | acetylcholine-treated LPS-stimulated IL-1β mRNA (IL-1β mRNA): 2128 attomole/ml | acetylcholine-treated LPS-stimulated IL-6 mRNA (IL-6 mRNA): 1872 attomole/ml | EC50 [3]: 0.8 µM | inhibition of TNF release [4]: 80%

C[N+](C)(C)CCOC(N)=O [carbachol]
inhibition of TNF release [1, 6]: Inhibition of TNF was also observed

CN1[C@@H]2CC[C@H]1C[C@@H](OC(=O)C(CO)c1ccccc1)C2 (some centres unmarked) [atropine]
TNF production in vehicle-treated cultures ([4]; without acetylcholine (not shown)): Neither atropine nor α-conotoxin altered TNF production
